In patent US20140357487A1, “PLANTS HAVING INCREASED TOLERANCE TO HERBICIDES” (BASF SE, priority 2011, published 2014):

Assays:
[1] = tested on: transgenic Arabidopsis plants overexpressing Barley HPPD (Seq ID: 2); assay: Arabidopsis growth inhibition in 48-well plates, line overexpressing Barley HPPD; assay type: in vivo, Arabidopsis thaliana; settings: Barley (Seq ID: 2) overexpression line; plant growth IC50 of transgenic divided by that of wildtype plants
Text: (§1) Various methods for the production of stably transformed plants are well known in the art. Coumarone-derivative herbicide tolerant soybean (Glycine max) or corn (Zea mays) plants can be produced by a method described by Olhoft et al. (US patent 2009/0049567). Briefly, HPPD or HST encoding polynucleotides are cloned into a binary vector using standard cloning techniques as described by Sambrook et al. (Molecular cloning (2001) Cold Spring Harbor Laboratory Press). The final vector construct contains an HPPD or HST encoding sequence flanked by a promoter sequence (e.g. the ubiquitin promoter (PcUbi) sequence) and a terminator sequence (e.g. the nopaline synthase terminator (NOS) sequence) and a resistance marker gene cassette (e.g. AHAS) (FIG. 2). Optionally, the HPPD or HST gene can provide the means of selection. Agrobacterium-mediated transformation is used to introduce the DNA into soybean's axillary meristem cells at the primary node of seedling explants. After inoculation and co-cultivation with Agrobacteria, the explants are transferred to shoot induction medium without selection for one week. […]
(§2) Depending on the species, the plants are kept at 10-25° C. or 20-35° C. […] During this time, the plants are tended and their response to the individual treatments is evaluated. […] Tolerance to coumarone-derivative herbicides can also be assessed in Arabidopsis. […]

[2] = tested on: transgenic Arabidopsis plants overexpressing Synechocystis HPPD (Seq ID: 20); assay: Arabidopsis growth inhibition in 48-well plates, line overexpressing Synechocystis HPPD; assay type: in vivo, Arabidopsis thaliana; settings: Synechocystis (Seq ID: 20) overexpression line; plant growth IC50 of transgenic divided by that of wildtype plants
Text: as §1, §2

[3] = tested on: corn plants, wild type (transgene none); assay: Greenhouse testing of corn plants, wild type; assay type: in vivo, Zea mays; settings: 5 days after herbicide treatment
Text: (§3) Various methods for the production of stably transformed plants are well known in the art. Coumarone-derivative herbicide tolerant soybean (Glycine max) or corn (Zea mays) plants can be produced by a method described by Olhoft et al. (US patent 2009/0049567). Briefly, HPPD or HST encoding polynucleotides are cloned into a binary vector using standard cloning techniques as described by Sambrook et al. (Molecular cloning (2001) Cold Spring Harbor Laboratory Press). The final vector construct contains an HPPD or HST encoding sequence flanked by a promoter sequence (e.g. the ubiquitin promoter (PcUbi) sequence) and a terminator sequence (e.g. the nopaline synthase terminator (NOS) sequence) and a resistance marker gene cassette (e.g. AHAS) (FIG. 2). Optionally, the HPPD or HST gene can provide the means of selection. Agrobacterium-mediated transformation is used to introduce the DNA into soybean's axillary meristem cells at the primary node of seedling explants. After inoculation and co-cultivation with Agrobacteria, the explants are transferred to shoot induction medium without selection for one week. The explants are subsequently transferred to shoot induction medium with 1-3 μM imazapyr (Arsenal) for 3 weeks to select for transformed cells. Explants with healthy callus/shoot pads at the primary node are then transferred to shoot elongation medium containing 1-3 μM imazapyr until a shoot elongates or the explant dies. After regeneration, transformants are transplanted to soil in small pots, placed in growth chambers (16 hr day/8 hr night; 25° C. day/23° C. night; 65% relative humidity; 130-150 mE m−2 s−1) and subsequently tested for the presence of the T-DNA via Taqman analysis. After a few weeks, healthy, transgenic positive, single copy events are transplanted to larger pots and allowed to grow in the growth chamber. Transformation of corn plants is done by a method described by McElver and Singh (WO 2008/124495). Plant transformation vector constructs containing HPPD or HST sequences are introduced into maize immature embryos via Agrobacterium-mediated transformation. Transformed cells are selected in selection media supplemented with 0.5-1.5 μM imazethapyr for 3-4 weeks. Transgenic plantlets are regenerated on plant regeneration media and rooted afterwards. Transgenic plantlets are subjected to TaqMan analysis for the presence of the transgene before being transplanted to potting mixture and grown to maturity in greenhouse. Arabidopsis thaliana is transformed with HPPD or HST sequences by floral dip method as described by McElver and Singh (WO 2008/124495). Transgenic Arabidopsis plants are subjected to Tag Man analysis for analysis of the number of integration loci. Transformation of Oryza sativa (rice) are done by protoplast transformation as described by Peng et al. (U.S. Pat. No. 6,653,529)
(§4) Transgenic plants expressing heterologous HPPD or HST enzymes are tested for tolerance against coumarone-derivative herbicides in greenhouse experiments.
(§5) For post emergence treatment, the test plants are first grown to a height of 3 to 15 cm, depending on the plant habit, and only then treated with the herbicides. For this purpose, the test plants are either sown directly and grown in the same containers, or they are first grown separately and transplanted into the test containers a few days prior to treatment.
(§6) Depending on the species, the plants are kept at 10-25° C. or 20-35° C. The test period extends over 3 weeks. During this time, the plants are tended and their response to the individual treatments is evaluated. […] Tolerance to coumarone-derivative herbicides can also be assessed in Arabidopsis. In this case transgenic Arabidopsis thaliana plants are assayed for improved tolerance to coumarone-derivative herbicides in 48-well plates. Seeds are surface sterilized by stirring for 5 min in ethanol+water (70+30 by volume), rinsing one time with ethanol+water (70+30 by volume) and two times with a sterile, deionized water. […]

[4] = tested on: transgenic corn plants, Arabidopsis Q293S, event SDM-71864; assay: Greenhouse testing of transgenic corn plants, Arabidopsis Q293S; assay type: in vivo, Zea mays; settings: corn SDM-71864, 5 days after herbicide treatment, average of 8 T1
Text: as §3, §4, §5
as §6, with “The test period extends over 3 weeks.” left out

[5] = tested on: transgenic soybean plants, Arabidopsis M335Y, event SDS-9866; assay: Greenhouse testing of transgenic soybean plants, Arabidopsis M335Y; assay type: in vivo, Glycine max; settings: soybean SDS-9866, 5 days after herbicide treatment, average of 8 T1
Text: as §3, §4, §5, §6

CC1=NOC(c2c(Cl)ccc(C3=C(O)c4ncccc4C(C)(C)S3(=O)=O)c2Cl)C1 (stereo not shown) [Inhibitor 1, 7-[2,4-dichloro-3-(3-methyl-4,5-dihydroisoxazol-5-yl)phenyl]-5,5-dimethyl-6,6-dioxo-thiopyrano[4,3-b]pyridin-8-ol]
Tolerance factor [1]: 10
Tolerance factor [2]: 1

CC1(C)c2cccnc2C(O)=C(c2ccc(Cl)nc2Cl)S1(=O)=O [Inhibitor 2, 7-(2,6-dichloro-3-pyridyl)-5,5-dimethyl-6,6-dioxo-thiopyrano[4,3-b]pyridin-8-ol]
Tolerance factor [1]: 3
Tolerance factor [2]: 1
Injury evaluation, scale of 1-100, bleaching phenotype ([3]; 2.5 g/ha): 20
Injury evaluation, scale of 1-100, bleaching phenotype ([3]; 10 g/ha): 45
Injury evaluation, scale of 1-100, bleaching phenotype ([3]; 40 g/ha): 33
Injury evaluation, scale of 1-100, bleaching phenotype ([4]; 2.5 g/ha): 4
Injury evaluation, scale of 1-100, bleaching phenotype ([4]; 10 g/ha): 17
Injury evaluation, scale of 1-100, bleaching phenotype ([4]; 40 g/ha): 15
Injury evaluation, scale of 1-100, bleaching phenotype ([5]; 2.5 g/ha): 4
Injury evaluation, scale of 1-100, bleaching phenotype ([5]; 10 g/ha): 5
Injury evaluation, scale of 1-100, bleaching phenotype ([5]; 40 g/ha): 10

Cc1c(C(=O)c2cnn(C)c2O)ccc(S(C)(=O)=O)c1C1=NOCC1 [Topramezone, reference compound]
Injury evaluation, scale of 1-100, bleaching phenotype ([3]; 6.25 g/ha): 0
Injury evaluation, scale of 1-100, bleaching phenotype ([3]; 25 g/ha): 0
Injury evaluation, scale of 1-100, bleaching phenotype ([3]; 100 g/ha): 0
Injury evaluation, scale of 1-100, bleaching phenotype ([4]; 6.25 g/ha): 1
Injury evaluation, scale of 1-100, bleaching phenotype ([4]; 25 g/ha): 4
Injury evaluation, scale of 1-100, bleaching phenotype ([4]; 100 g/ha): 6
Injury evaluation, scale of 1-100, bleaching phenotype ([5]; 6.25 g/ha): 4
Injury evaluation, scale of 1-100, bleaching phenotype ([5]; 25 g/ha): 8
Injury evaluation, scale of 1-100, bleaching phenotype ([5]; 100 g/ha): 23
